Source: EP2910557A1, “Enantiopure tetrasubstituted pyrrolidines as scaffolds for proteasome inhibitors and medicinal applications thereof” (Ikerchem, S.L., priority 2014, dated 2015)

Assays:
[1] = target: T1, Human erythrocyte 20S proteasome (Homo sapiens, UniProt P28074); assay: In vitro enzymatic assay of proteasome inhibitory activity (Suc-Leu-Leu-Val-Tyr-AMC substrate); assay type: biochemical; details: for inhibition at 0.05 µM: Concentration 50 nM; for IC50: human erythrocyte 20S proteasome, 10 µM Suc-Leu-Leu-Val-Tyr-AMC, 37°C
T1 construct: Enzyme: Human erythrocyte 20S proteasome; from tissue; host or cells: human erythrocytes
Protocol: Example 20: In vitro enzymatic assay of proteasome inhibitory activity.
Substrate: Suc-Leu-Leu-Val-Tyr-AMC
Assay buffer: 250 mM HEPES, pH 7.5, 0.5 mM EDTA, 0.03% SDS, 0.05% Igepal CA-630.
Enzyme: Human erythrocyte 20S proteasome
In vitro proteasome inhibitory activity of the compounds of the invention is evaluated by spectrofluorimetric quantitation of AMC. Stock solutions of compounds of the invention are prepared in dimethyl sulphoxide (DMSO). Test compound and/or vehicle is preincubated with […] enzyme (human erythrocyte 20S proteasome) in modified HEPES buffer pH 7.5 and 1% final concentration of DMSO for 15 minutes at 37°C. The reaction is initiated by addition of 10 µM Suc-Leu-Leu-Val-Tyr-AMC for another 30 minutes incubation period at 37°C. Determination of the release of AMC is read spectrophotometrically (excitation, 380 nm; emission, 460 nm). IC50 values are determined by a non-linear, least squares regression analysis using MathlQTM (ID Business Solutions Ltd., UK).

[2] = tested on: U-373 MG; assay: Cancer cell growth inhibition, 72 h treatment; assay type: cell-based; details: Homo sapiens, U373 MG, Brain U-373 MG
Protocol: (§1) Cell culture-based assays were used to evaluate the ability of compounds of the invention to inhibit cancer cell growth.
(§2) Cells were obtained from the American Type Culture Collection (ATCC) and the European Collection of Cell Cultures. Cells were thawed in their appropriate media plus supplements (see table below). Cells were passaged at confluence by washing once in HBSS cation-free followed by a 3 minutes incubation with trypsin ([0.5 µg/ml]/EDTA [0.2 µg/ml]) (Gibco-BRL, 15400054) solution in HBSS at 37°C (except non-adherent cell lines - hematologic), and transferred to their appropriate media plus supplements. Prior to seeding at defined cell concentration, cells were recovered in medium, centrifuged, taken up in medium and counted.
(§3) All treatments were performed in triplicate. Experiments were carried out in 96-well cell culture plates (Cultek) and the cell lines seeded at the density mentioned in the table above and cultured at 37°C with 5% CO2. After 24h, media were supplemented by 100 µl/well of diluted test compound at variable final concentrations and incubated for 72 hours. Then, AlamarBlue® Reagent (Biosource DAL1100) was added to each well and incubated at 37°C for 4 hours. Relative fluorescent intensity that correlates with the number of living cells was read in a Cytofluor plate reader (Millipore) at 535/590 nm (Excitation/emission). After reading the AlamarBlue® signal, the hexosaminidase activitity was measured according to the following protocol: medium was removed and cells were washed once with PBS. 60 µl of substrate solution (p-nitrophenol-N-acetyl-beta-D-glucosaminide 7.5 mM [Sigma N-9376], sodium citrate 0.1 M, pH 5.0, 0.25% Triton X-1 00) was added to each well and incubated at 37°C for 1-2 hours; after this incubation time, a bright yellow colour appears; then, plates could be developed by adding 90 µl of developer solution (Glycine 50 mM, pH 10.4; EDTA 5 mM), and absorbance was recorded at 405 nm.
(§4) Note: In all cases assays were performed in Alamar Blue with the exception of those indicated (* = Hexosaminidase assay)

[3] = tested on: MDA-MB-231; assay: Cancer cell growth inhibition, 72 h treatment; assay type: cell-based; details: Homo sapiens, Breast cancer MDA-MB-231, Alamar Blue
Protocol: as §1, §2, §3, §4

[4] = tested on: NCI-H1650; assay: Cancer cell growth inhibition, 72 h treatment; assay type: cell-based; details: Homo sapiens
Protocol: as §1, §2, §3, §4

[5] = tested on: BxPC-3; assay: Cancer cell growth inhibition, 72 h treatment; assay type: cell-based; details: Homo sapiens
Protocol: as §1, §2, §3, §4

[6] = tested on: PC-3; assay: Cancer cell growth inhibition, 72 h treatment; assay type: cell-based; details: Homo sapiens, Prostate cancer PC-3, Alamar Blue
Protocol: as §1, §2, §3, §4

[7] = tested on: A549; assay: Cancer cell growth inhibition, 72 h treatment; assay type: cell-based; details: Homo sapiens
Protocol: as §1, §2, §3, §4

[8] = tested on: NCI-H358; assay: Cancer cell growth inhibition, 72 h treatment; assay type: cell-based; details: Homo sapiens, Lung cancer NCI-H358, Alamar Blue
Protocol: as §1, §2, §3, §4

[9] = tested on: Jurkat; assay: Cancer cell growth inhibition, 72 h treatment; assay type: cell-based; details: Homo sapiens, Hematologic Jurkat, Alamar Blue
Protocol: as §1, §2, §3, §4

[10] = tested on: HepG2; assay: Cancer cell growth inhibition, 72 h treatment; assay type: cell-based; details: Homo sapiens, Liver cancer HepG2, Alamar Blue
Protocol: as §1, §2, §3, §4

[11] = tested on: Daoy; assay: Cancer cell growth inhibition, 72 h treatment; assay type: cell-based; details: Homo sapiens, Brain Daoy, Alamar Blue
Protocol: as §1, §2, §3, §4

[12] = tested on: RAMOS; assay: Cancer cell growth inhibition, 72 h treatment; assay type: cell-based; details: Homo sapiens, Hematologic RAMOS, Alamar Blue
Protocol: as §1, §2, §3, §4

[13] = tested on: LoVo; assay: Cancer cell growth inhibition, 72 h treatment; assay type: cell-based; details: Homo sapiens, Colon cancer LoVo, Alamar Blue
Protocol: as §1, §2, §3, §4

[14] = tested on: SK-BR-3; assay: Cancer cell growth inhibition, 72 h treatment; assay type: cell-based; details: Homo sapiens, Breast cancer SK-BR-3, Alamar Blue
Protocol: as §1, §2, §3, §4

[15] = tested on: MDA-MB-435; assay: Cancer cell growth inhibition, 72 h treatment; assay type: cell-based; details: Homo sapiens, Melanoma MDA-MB-435, Alamar Blue
Protocol: as §1, §2, §3, §4

[16] = tested on: RPMI-8226; assay: Cancer cell growth inhibition, 72 h treatment; assay type: cell-based; details: Homo sapiens, Multiple mieloma RPMI-8226, Alamar Blue
Protocol: as §1, §2, §3, §4

[17] = tested on: 143b; assay: Cancer cell growth inhibition, 72 h treatment; assay type: cell-based; details: Homo sapiens, Osteosarcoma 143b, Alamar Blue
Protocol: as §1, §2, §3, §4

[18] = tested on: T47D; assay: Cancer cell growth inhibition, 72 h treatment; assay type: cell-based; details: Homo sapiens, Breast cancer T47D
Protocol: as §1, §2, §3, §4

[19] = tested on: HeLa; assay: Cancer cell growth inhibition, 72 h treatment; assay type: cell-based; details: Homo sapiens, Cervical HeLa, Alamar Blue
Protocol: as §1, §2, §3, §4

[20] = tested on: HT-1080; assay: Cancer cell growth inhibition, 72 h treatment; assay type: cell-based; details: Homo sapiens, Fibrosarcoma HT-1080, Alamar Blue
Protocol: as §1, §2, §3, §4

[21] = tested on: DU-145; assay: Cancer cell growth inhibition, 72 h treatment; assay type: cell-based; details: Homo sapiens, Prostate cancer DU-145, Alamar Blue
Protocol: as §1, §2, §3, §4

[22] = tested on: K562; assay: Cancer cell growth inhibition, 72 h treatment; assay type: cell-based; details: Homo sapiens, Hematologic K562, Alamar Blue
Protocol: as §1, §2, §3, §4

[23] = tested on: MDA-MB-468; assay: Cancer cell growth inhibition, 72 h treatment; assay type: cell-based; details: Homo sapiens, Breast cancer MDA-MB-468, Alamar Blue
Protocol: as §1, §2, §3, §4

[24] = tested on: OVCAR-3; assay: Cancer cell growth inhibition, 72 h treatment; assay type: cell-based; details: Homo sapiens
Protocol: as §1, §2, §3, §4

[25] = Lung cancer NCI-H1650, Alamar Blue
[26] = Pancreatic cancer BxPC-3, Alamar Blue
[27] = Ovarian cancer OVCAR-3, Alamar Blue

| Compound | inhibition at 0.05 µM [1] [%] | IC50 [1] [µM] | EC50 ([2]; Alamar Blue) [µM] | EC50 [3] [µM] | EC50 [4, 25] [µM] | EC50 [6] [µM] | EC50 [9] [µM] | EC50 [10] [µM] | EC50 [11] [µM] | EC50 [12] [µM] | EC50 [13] [µM] | EC50 [14] [µM] | EC50 [15] [µM] | EC50 [16] [µM] | EC50 [17] [µM] | EC50 [19] [µM] | EC50 [20] [µM] | EC50 [21] [µM] | EC50 [22] [µM] | EC50 [23] [µM] | other results |
| --- | --- | --- | --- | --- | --- | --- | --- | --- | --- | --- | --- | --- | --- | --- | --- | --- | --- | --- | --- | --- | --- |
| CC(C)C[C@H](NC(=O)[C@H]1N[C@@H](c2ccccc2)[C@@H]([N+](=O)[O-])[C@@H]1c1ccccc1)B(O)O [Example 4, (R)-3-methyl-1-((2S,3R,4S,5S)-4-nitro-3,5-diphenylpyrrolidine-2-carboxamido)butylboronic acid] | 51 | 0.046 | 7.3 | 2.1 | 0.79 | 2.3 | 1.7 | 0.38 | 1.3 | 1 | 3.09 | 0.76 | 0.37 | 0.27 | 2 | 8.3 | 1.7 | 1.2 | 2 | 0.79 | EC50 [5, 26]: 2.9 µM; EC50 ([7]; Lung cancer A549, Alamar Blue): 4 µM; EC50 [8]: 2.4 µM; EC50 ([18]; Alamar Blue): 2.1 µM; EC50 [24, 27]: 0.89 µM |
| CC(C)C[C@H](NC(=O)[C@@H]1N[C@H](c2ccccc2)[C@@H]([N+](=O)[O-])[C@@H]1c1ccco1)B(O)O [Example 11, (R)-1-((2R,3R,4S,5R)-3-(furan-2-yl)-4-nitro-5-phenylpyrrolidine-2-carboxamido)-3-methylbutylboronic acid] | 81 | 0.00755 |  | 1.1 |  | 0.68 | 0.04 | 0.22 | 0.29 | 0.16 | 0.66 | 0.11 | 0.17 | 0.06 | 0.1 | 3.1 | 0.89 | 0.57 | 1 | 0.12 | EC50 ([2]; Hexosaminidase assay (*)): 1.1 µM; EC50 ([4]; Lung cancer NCI-H1650, Hexosaminidase assay (*)): 1.2 µM; EC50 ([5]; Pancreatic cancer BxPC-3, Hexosaminidase assay (*)): 0.7 µM; EC50 ([7]; Lung cancer A549, Hexosaminidase assay (*)): 1.3 µM; EC50 [8]: 0.28 µM; EC50 ([18]; Alamar Blue): 1.3 µM; EC50 ([24]; Ovarian cancer OVCAR-3, Hexosaminidase assay (*)): 0.28 µM |
| CC(C)C[C@H](NC(=O)[C@@H]1CCCN1)B(O)O [MG-319, {(R)-3-methyl-1-[(S)-pyrrolidine-2-carboxamido]butyl}boronic acid, reference compound] |  |  | 92 | 18 | 14 | 26 | 4.7 | 8.1 | 41 | 8.7 | 15 | 6.2 | 5.3 | 4.8 | 0.98 | 52 | 8.9 | 58 | 19 | 18 | inhibition at 0.5 µM ([1]; Concentration 500 nM): 25%; EC50 [5, 26]: 33 µM; EC50 [8]: 24 µM; EC50 ([18]; Alamar Blue): 25 µM; EC50 [24, 27]: 6.9 µM |
| CC(C)C[C@H](NC(=O)[C@@H]1N[C@H](c2ccc3ccccc3c2)[C@@H]([N+](=O)[O-])[C@@H]1c1ccccc1)B(O)O [Example 12, (R)-3-methyl-1-((2R,3R,4S,5R)-5-(naphthalen-2-yl)-4-nitro-3-phenylpyrrolidine-2-carboxamido)butylboronic acid] | 50 | 0.046 | 11 | 3.2 | 0.37 | 0.3 | 0.8 | 0.5 | 0.57 | 0.5 | 1.7 | 0.57 | 0.21 | 0.31 | 0.37 | 11 | 0.46 | 0.35 | 2.7 | 1 | EC50 [5, 26]: 0.97 µM; EC50 ([7]; Lung cancer A549, Alamar Blue): 5.8 µM; EC50 ([18]; Hexosaminidase assay (*)): 7.1 µM; EC50 [24, 27]: 0.33 µM |
